# Paper PMC7351026, “Serum Half-Lives for Short- and Long-Chain Perfluoroalkyl Acids after Ceasing Exposure from Drinking Water Contaminated by Firefighting Foam” (Environmental Health Perspectives, 2020)
# Experiments:
# [1] = PFAS levels in serum samples of airport employees (LC/MS/MS)
# Excerpt: All 26 employees at the airport were invited for a blood sampling between 11 and 14 September 2018 (i.e., within 11 to 14 d after the termination of contaminated drinking-water exposure). Information on age, home address, employment history, working tasks, and sick leave and vacation days in August and September were collected by questionnaire. In addition, data on the number of glasses of water consumed per day, local fish consumption, and history of blood donation and medication were collected. For female employees, questions about menstruation, pregnancy, and duration of breast-feeding were asked.
# The PFAS analysis in serum from the first sampling was immediately performed and personal results were reported to the employees. […] These 17 employees submitted four rounds of blood and first morning urine samples in parallel, at 1-month intervals. In total, there were five rounds of serum sampling (started from September) and four rounds of urine sampling (from October). For modeling of elimination, all samples were reanalyzed in a single batch. We obtained 83 serum samples with a median count of 5 (range: 4–5) samples per employee, and 59 urine samples with median of 4 (range: 1–4) samples per employee. Only one employee provided a single urine sample. The study was approved by the Regional Ethical Review Board in Lund, Sweden. All employees provided written informed consent.
# Venous whole blood samples were obtained and were centrifuged for 10 min at 1,500×g at room temperature to isolate the serum on site. The serum samples were collected in 6-mL BD Vacutainer® Plus plastic serum tubes without gel (BD). Urine samples were collected in 13-mL polypropylene screw cap tubes (Sarstedt). Serum and urine samples were frozen at −20°C after sampling and transported to Lund using cold chain logistics. Serum and urine samples were stored at −80°C and −20°C , respectively, before analysis.
# The serum samples, QC samples, and chemical blanks were prepared in 96-well plates with 1.5-mL flat-bottom glass vials (Biotech solutions). Serum samples were thawed for 1–2 h and mixed on a vortex shaker for approximately 10 s two times. Once after all samples were thawed and a second time before pipetting the serum to the plate. Before pipetting, the tip was pre-wetted several times, drawing a volume into the tip and dispensing it back into the tube. Sample preparation procedures for serum samples consisted of 25μL serum mixed with 25μL water, 25μL methanol, 25μL isotopically labeled internal standards in 50% acetonitrile (see Table S1), and 100μL acetonitrile. Thereafter, samples were mixed vigorous by shaking for 30 min and centrifuged at 2,600×g for 10 min at room temperature. The supernatant ( 0.2mL ) was transferred to 96-well plates with 0.5-mL conical glass vials (MicroLiter Analytical Supplies) and again centrifuged at 3,000×g for 10 min before analysis. The QC samples and chemical blanks were prepared following the same procedure as the serum samples. The calibration standards were prepared in FBS the same way as the samples, except for the addition of diluted reference standards of all analyzed compounds in 25μL of the methanol solution.
# Aliquots of 4μL of the sample were analyzed using LC/MS/MS. For the analysis, a C18 column ( 4μm , 2.1mm i.d.×50mm , Genesis Lightning) was used prior to the injector to filter the mobile phases. The analytical column was an Aquity BEH ( 1.7μm , 2.1mm i.d.×100mm Waters). The mobile phases (A and B) were A: 5 mM ammonium acetate in water:methanol (50:50); and B: methanol. The mobile phase was kept at 0% B for 2.5 min after injection. A gradient was then applied over 11 min to 90% B, where it was then kept for 1.5 min. The column was then conditioned at 0% B for 2 min.
# [2] = PFAS levels in urine samples of airport employees, specific-gravity adjusted (LC/MS/MS); format: in vivo, human
# Description: Only one employee provided a single urine sample. […] All employees provided written informed consent.
# The samples were thawed 1–2 h, then mixed by vortex shaker and manual turning. […] For the urine samples, 50μL urine was mixed with 25μL of methanol and 25μL of a 50% acetonitrile solution containing isotopically labeled internal standards (see Table S1). Then samples were shaken vigorously for 30 min and centrifuged at 3,000×g for 10 min at room temperature.
# Aliquots of 20μL of the sample were analyzed using LC/MS/MS. […] The analysis was performed in negative ion mode. The ion source temperature was at 350°C.
# Urinary PFAS concentrations were specific-gravity adjusted. The ratio of urine and serum concentration for each PFAS (urine/serum ratio) at each sampling was calculated based on PFAS concentrations in paired serum and urine samples from 17 employees. Then the personal average urine/serum ratio was calculated using the mean value of repeated samplings for each employee.
# [3] = 1st sampling (September 2018), count 17
# [4] = 2nd sampling (October 2018), count 17
# [5] = 3rd sampling (November, 2018), count 17
# [6] = 4th sampling (December 2018), count 16
# [7] = 5th sampling (January 2019), count 16
# [8] = employees participated in first blood sampling and repeated blood and urine sampling, N=17
# [9] = employees participated in first blood sampling only, N=9, 11-14 d after end of exposure
# [10] = 3rd sampling (November, 2018), count 16
# [11] = 4th sampling (December 2018), count 14
# [12] = 5th sampling (January 2019), count 12
compound,measurement,setting,value
perfluoro-3/4/5-methylheptanesulfonate [3/4/5m-PFOS],"Serum PFAS level, 25 percentile",[1]; [3],2.7
same,"Serum PFAS level, 75 percentile",[1]; [3],6.3
same,"Serum PFAS level, Max",[1]; [3],17
same,"Serum PFAS level, Median",[1]; [3],4.9
same,"Serum PFAS level, Min",[1]; [3],1.7
same,"Serum PFAS level, 25 percentile",[1]; [4],2.4
same,"Serum PFAS level, 75 percentile",[1]; [4],4.8
same,"Serum PFAS level, Max",[1]; [4],15
same,"Serum PFAS level, Median",[1]; [4],4.1
same,"Serum PFAS level, Min",[1]; [4],1.3
same,"Serum PFAS level, 25 percentile",[1]; [5],2.5
same,"Serum PFAS level, 75 percentile",[1]; [5],5.1
same,"Serum PFAS level, Max",[1]; [5],16
same,"Serum PFAS level, Median",[1]; [5],4.2
same,"Serum PFAS level, Min",[1]; [5],1.0
same,"Serum PFAS level, 25 percentile",[1]; [6],2.1
same,"Serum PFAS level, 75 percentile",[1]; [6],4.9
same,"Serum PFAS level, Max",[1]; [6],16
same,"Serum PFAS level, Median",[1]; [6],3.6
same,"Serum PFAS level, Min",[1]; [6],1.0
same,"Serum PFAS level, 25 percentile",[1]; [7],2.7
same,"Serum PFAS level, 75 percentile",[1]; [7],4.9
same,"Serum PFAS level, Max",[1]; [7],16
same,"Serum PFAS level, Median",[1]; [7],4.0
same,"Serum PFAS level, Min",[1]; [7],1.0
same,"PFAS in first serum sample, median (range)",[1]; [8],4.9 (1.7–17) ng/mL
same,"PFAS in first serum sample, median (range)",[1]; [9],2.9 (1.2–6.7) ng/mL
same,"Initial serum PFAS level, max",[1]; females (N=7),5.4 ng/mL
same,"Initial serum PFAS level, median",[1]; females (N=7),2.9 ng/mL
same,"Initial serum PFAS level, min",[1]; females (N=7),1.7 ng/mL
same,"Initial serum PFAS level, Max",[1]; males (N=19),17 ng/mL
same,"Initial serum PFAS level, Min",[1]; males (N=19),1.2 ng/mL
same,"Initial serum PFAS level, median",[1]; males (N=19),4.9 ng/mL
"O=S(=O)(O)C(F)(C(F)(F)F)C(F)(F)C(F)(F)C(F)(F)C(F)(F)C(F)(F)C(F)(F)F (stereo not drawn) [1m-PFOS, perfluoro-1-methylheptanesulfonate]","Serum PFAS level, 25 percentile",[1]; [3],0.48
same,"Serum PFAS level, 75 percentile",[1]; [3],1.8
same,"Serum PFAS level, Max",[1]; [3],4.1
same,"Serum PFAS level, Median",[1]; [3],1.0
same,"Serum PFAS level, Min",[1]; [3],0.32
same,"Serum PFAS level, 25 percentile",[1]; [4],0.54
same,"Serum PFAS level, 75 percentile",[1]; [4],1.4
same,"Serum PFAS level, Max",[1]; [4],4.0
same,"Serum PFAS level, Median",[1]; [4],0.89
same,"Serum PFAS level, Min",[1]; [4],0.26
same,"Serum PFAS level, 25 percentile",[1]; [5],0.54
same,"Serum PFAS level, 75 percentile",[1]; [5],1.5
same,"Serum PFAS level, Max",[1]; [5],4.4
same,"Serum PFAS level, Median",[1]; [5],0.88
same,"Serum PFAS level, Min",[1]; [5],0.24
same,"Serum PFAS level, 25 percentile",[1]; [6],0.47
same,"Serum PFAS level, 75 percentile",[1]; [6],1.3
same,"Serum PFAS level, Max",[1]; [6],4.3
same,"Serum PFAS level, Median",[1]; [6],0.91
same,"Serum PFAS level, Min",[1]; [6],0.24
same,"Serum PFAS level, 25 percentile",[1]; [7],0.51
same,"Serum PFAS level, 75 percentile",[1]; [7],1.3
same,"Serum PFAS level, Max",[1]; [7],4.5
same,"Serum PFAS level, Median",[1]; [7],0.97
same,"Serum PFAS level, Min",[1]; [7],0.26
same,"PFAS in first serum sample, median (range)",[1]; [8],1.0 (0.32–4.1) ng/mL
same,"PFAS in first serum sample, median (range)",[1]; [9],0.52 (0.25–2.7) ng/mL
same,"Initial serum PFAS level, max",[1]; females (N=7),1.1 ng/mL
same,"Initial serum PFAS level, median",[1]; females (N=7),0.58 ng/mL
same,"Initial serum PFAS level, min",[1]; females (N=7),0.39 ng/mL
same,"Initial serum PFAS level, Max",[1]; males (N=19),4.1 ng/mL
same,"Initial serum PFAS level, Min",[1]; males (N=19),0.25 ng/mL
same,"Initial serum PFAS level, median",[1]; males (N=19),1.1 ng/mL
Perfluoro-2/6-methylheptanesulfonate [2/6m-PFOS],"Specific gravity adjusted urinary level, 25 percentile",[2]; [4],< LOD
same,"Specific gravity adjusted urinary level, 75 percentile",[2]; [4],< LOD
same,"Specific gravity adjusted urinary level, Max",[2]; [4],< LOD
same,"Specific gravity adjusted urinary level, Median",[2]; [4],< LOD
same,"Specific gravity adjusted urinary level, Min",[2]; [4],< LOD
same,"Specific gravity adjusted urinary level, 25 percentile",[2]; [10],< LOD
same,"Specific gravity adjusted urinary level, 75 percentile",[2]; [10],< LOD
same,"Specific gravity adjusted urinary level, Max",[2]; [10],0.04 ng/mL
same,"Specific gravity adjusted urinary level, Median",[2]; [10],< LOD
same,"Specific gravity adjusted urinary level, Min",[2]; [10],< LOD
same,"Specific gravity adjusted urinary level, 25 percentile",[2]; [11],< LOD
same,"Specific gravity adjusted urinary level, 75 percentile",[2]; [11],< LOD
same,"Specific gravity adjusted urinary level, Max",[2]; [11],1.60 ng/mL
same,"Specific gravity adjusted urinary level, Median",[2]; [11],< LOD
same,"Specific gravity adjusted urinary level, Min",[2]; [11],< LOD
same,"Specific gravity adjusted urinary level, 25 percentile",[2]; [12],< LOD
same,"Specific gravity adjusted urinary level, 75 percentile",[2]; [12],< LOD
same,"Specific gravity adjusted urinary level, Max",[2]; [12],0.03 ng/mL
same,"Specific gravity adjusted urinary level, Median",[2]; [12],< LOD
same,"Specific gravity adjusted urinary level, Min",[2]; [12],< LOD
same,"Serum PFAS level, 25 percentile",[1]; [3],1.4
same,"Serum PFAS level, 75 percentile",[1]; [3],3.6
same,"Serum PFAS level, Max",[1]; [3],7.5
same,"Serum PFAS level, Median",[1]; [3],2.6
same,"Serum PFAS level, Min",[1]; [3],1.0
same,"Serum PFAS level, 25 percentile",[1]; [4],1.5
same,"Serum PFAS level, 75 percentile",[1]; [4],2.8
same,"Serum PFAS level, Max",[1]; [4],7.2
same,"Serum PFAS level, Median",[1]; [4],2.2
same,"Serum PFAS level, Min",[1]; [4],0.97
same,"Serum PFAS level, 25 percentile",[1]; [5],1.3
same,"Serum PFAS level, 75 percentile",[1]; [5],3.5
same,"Serum PFAS level, Max",[1]; [5],8.1
same,"Serum PFAS level, Median",[1]; [5],2.3
same,"Serum PFAS level, Min",[1]; [5],0.66
same,"Serum PFAS level, 25 percentile",[1]; [6],0.96
same,"Serum PFAS level, 75 percentile",[1]; [6],2.9
same,"Serum PFAS level, Max",[1]; [6],7.1
same,"Serum PFAS level, Median",[1]; [6],1.9
same,"Serum PFAS level, Min",[1]; [6],0.57
same,"Serum PFAS level, 25 percentile",[1]; [7],1.2
same,"Serum PFAS level, 75 percentile",[1]; [7],2.7
same,"Serum PFAS level, Max",[1]; [7],7.0
same,"Serum PFAS level, Median",[1]; [7],2.1
same,"Serum PFAS level, Min",[1]; [7],0.83
same,"PFAS in first serum sample, median (range)",[1]; [8],2.6 (1.0–7.5) ng/mL
same,"PFAS in first serum sample, median (range)",[1]; [9],1.8 (0.84–3.2) ng/mL
same,"Initial serum PFAS level, max",[1]; females (N=7),2.8 ng/mL
same,"Initial serum PFAS level, median",[1]; females (N=7),1.4 ng/mL
same,"Initial serum PFAS level, min",[1]; females (N=7),1.0 ng/mL
same,"Initial serum PFAS level, Max",[1]; males (N=19),7.5 ng/mL
same,"Initial serum PFAS level, Min",[1]; males (N=19),0.84 ng/mL
same,"Initial serum PFAS level, median",[1]; males (N=19),2.5 ng/mL
same,"Serum level, median (range)","[1]; second to fifth samplings, 17 airport employees",2.1 (0.57–8.1) ng/mL
